Reference: patent publication US5232923A, “Catechol derivatives and pharmaceutical preparations containing same” (Mitsui Toatsu Chemicals, Incorporated, priority 1988, dated 1993)

Legend:
[1] = test system: production and secretion of NGF in mouse L-M cells; experiment: Promoting activity for the production and secretion of NGF in mouse L-M cells (ELISA of medium after 24 h); format: cell-based; conditions: Table 5, L-M cells, 0.4 mM; for fold induction at 400 µM: Mus musculus, 24 h, fold increase over control (1.00), read-out: NGF L-M Cell Increase Ratio; for NGF L-M Cell Concentration: 24 hours, control 0.87
Protocol: Promoting activity for the production and secretion of NGF in mouse L-M cells
The medium was cultured for 3 days at a temperature of 37° C. […] The sample of the derivative tested is contained in the medium at a prescribed concentration as illustrated in the Tables. […] Data are expressed as fold increase in NGF content of the medium over that cultivated in the absence of the derivative to be tested. […] Data are presented as the mean of four determinations. The results are illustrated in Tables 1-5.

[2] = test system: production and secretion of NGF in mouse brain astroglial cells; experiment: Promoting activity for the production and secretion of NGF in mouse brain astroglial cells (ELISA of medium after 24 h); format: cell-based; conditions: Table 5, 0.4 mM; for fold induction at 400 µM: Mus musculus, 24 h, fold increase over control (1.00), read-out: NGF Astroglial Cell Increase Ratio; for NGF Astroglial Cell Concentration: 24 hours, control 31.8
Protocol: Promoting activity for the production and secretion of NGF in mouse brain astroglial cells
The experiment was performed by inducing astroglial cells from the mouse forebrain to a culture system according to the procedures of S. Furukawa et al. which is described in Biochem. Biophys. Res. Commun., 136, 57-63 (1986).
Forebrains of 8-days old mice were dissected out and cut into small pieces. The pieces were washed with calcium- and magnesium-free phosphate-bufferedsaline (hereinafter abbreviated as PBS), treated with 0.25% trypsin containing PBS at 37° C. for 30 minutes and triturated with a Pasteur pipet to give a suspension. Cells and cell clumps were recovered by centrifugation at 200 xg for 5 minutes. They were cultured in Dulbecco modified Eagle's medium (a product of Gibco Co. hereinafter abbreviated as DMEM) containing 10% fetal calf serum, 50 μ units/ml of penicillin, and 50 μg/ml of streptomycin, for 10 to 14 days with medium changes every 3 days. After completing confluency, the cells were dissociated by trypsin treatment and recultured in new culture flasks. This procedure was repeated further twice and more. The culture became a uniform cell cluster. The cell cluster for use in this invention can be stained not less than 97% in accordance with the PAP staining method (peroxidase/[…] staining method) using anti-human glial fibrillar acidic protein (GFAP) rabbit antiserum. The cells will hereinafter be referred to as astroglial cells.
Astroglial cells were innoculated in 24-well plates having a well surface area of 2.1 cm^2 (a product of Falcon Co.) at a cell density of about 3×10^4 cells/well and cultured for 3 days in DMEM medium supplemented with 10% of fetal calf serum. After completing confluency about ([…]), the medium was changed to DMEM medium (0.5 ml/well) supplemented with 0.5% of bovine serum albumin (fraction V) and cultured for 3 days. The culture was further continued with medium changes every 3 days. After cells were practically synchronized in the quiscent stage, the medium was changed to 0.5 ml of the same medium and containing a prescribed concentration of test sample as illustrated in the Tables. NGF in the medium after cultivating for 24 hours was determined by the ELISA as mentioned above. Data are expressed as fold increase in NGF content over that in the absence of the test sample. The lower detection limit of the ELISA is 0.25 pg/ml and the NGF content of control medium was normally 1-10 pg/0.5 ml/well. Data are presented as the mean of four determinations. The results are illustrated in Tables 1-5.

Row | SMILES | fold induction at 400 µM [1] | NGF L-M Cell Concentration [1] | fold induction at 400 µM [2] | NGF Astroglial Cell Concentration [2]
1 | CCCCNC(=O)CCc1ccc(O)c(O)c1 [Compound 84, N-n-Butyl-3,4-dihydroxyphenylpropionamide] | 6.2 | 5.39 ng/well | 33.1 | 539.5 ng/well
2 | CCCCNC(=O)CCc1ccc(OC(C)=O)c(OC(C)=O)c1 [Compound 85, N-n-Butyl-3,4-diacetoxyphenylpropionamide] | 6.8 | 5.92 ng/well | 33.6 | 547.7 ng/well
3 | CCCCCNC(=O)CCc1ccc(O)c(O)c1 [Compound 86, N-n-Pentyl-3,4-dihydroxyphenylpropionamide] | 6.5 | 5.66 ng/well | 30.3 | 493.9 ng/well
4 | CCCCCCNC(=O)CCc1ccc(O)c(O)c1 [Compound 87, N-n-Hexyl-3,4-dihydroxyphenylpropionamide] | 5.8 | 5.05 ng/well | 12 | 195.6 ng/well
5 | CCCCCCNC(=O)CCc1ccc(OC(C)=O)c(OC(C)=O)c1 [Compound 88, N-n-Hexyl-3,4-diacetoxyphenylpropionamide] | 6.2 | 5.39 ng/well | 15.8 | 257.5 ng/well
6 | CCCCCCCCCCCCNC(=O)CCc1ccc(O)c(O)c1 [Compound 89, N-Lauryl-3,4-dihydroxyphenylpropionamide] | 4.3 | 3.74 ng/well | 5 | 81.5 ng/well
7 | CCCCN(C)C(=O)CCc1ccc(O)c(O)c1 [Compound 90, N-n-Butyl-N-methyl-3,4-dihydroxyphenylpropionamide] | 6.4 | 5.57 ng/well | 30 | 489.0 ng/well
8 | CCCCCCCCCCCCCCCCCCNC(=O)CCc1ccc(O)c(O)c1 [Compound 91, N-Stearyl-3,4-dihydroxyphenylpropionamide] | 4.1 | 3.57 ng/well | 5.2 | 84.8 ng/well
9 | CCCCCCN(CCCCCC)C(=O)CCc1ccc(O)c(O)c1 [Compound 92, N,N-Di-n-hexyl-3,4-dihydroxyphenylpropionamide] | 5 | 4.35 ng/well | 8.8 | 143.4 ng/well
10 | O=C(CCc1ccc(O)c(O)c1)NC1CCCCC1 [Compound 93, N-Cyclohexyl-3,4-dihydroxyphenylpropionamide] | 6 | 5.22 ng/well | 9.9 | 161.4 ng/well
11 | CN(Cc1ccccc1)C(=O)CCc1ccc(O)c(O)c1 [Compound 94, N-Methyl N-benzyl-3,4-dihydroxyphenylpropionamide] | 5.1 | 4.44 ng/well | 5.2 | 84.8 ng/well
12 | O=C(CCc1ccc(O)c(O)c1)Nc1ccccc1 [Compound 95, N-Phenyl-3,4-dihydroxyphenylpropionamide] | 5.9 | 5.13 ng/well | 11.2 | 182.6 ng/well
13 | O=C(CCc1ccc(O)c(O)c1)NC12CC3CC(CC(C3)C1)C2 [Compound 96, N-Adamantyl-3,4-dihydroxyphenylpropionamide] | 5.7 | 4.96 ng/well | 18 | 293.4 ng/well
14 | O=C(CCc1ccc(O)c(O)c1)N1CCCCC1 [Compound 97, N-[3-(3,4-Dihydroxyphenyl)propionyl]piperidine] | 6.2 | 5.39 ng/well | 13.7 | 435.7 ng/well
15 | O=C(CCc1ccc(O)c(O)c1)N1CCCC1 [Compound 98, N-[3-(3,4-Dihydroxyphenyl)propionyl]pyrrolidine] | 6.1 | 5.31 ng/well | 12.8 | 407.0 ng/well
16 | O=C(CCc1ccc(O)c(O)c1)N1CCOCC1 [Compound 99, N-[3-(3,4-Dihydroxyphenyl)propionyl]morpholine] | 4.8 | 4.18 ng/well | 5.2 | 165.4 ng/well
17 | CN1CCN(C(=O)CCc2ccc(O)c(O)c2)CC1 [Compound 100, N-Methyl-N'-[3-(3,4-dihydroxyphenyl)propionyl]piperazine] | 5 | 4.35 ng/well | 8.2 | 260.8 ng/well
18 | O=C(CCc1ccc(O)c(O)c1)N1CCN(Cc2ccccc2)CC1 [Compound 101, N-Benzyl-N'-[3-(3,4-dihydroxyphenyl)propionyl]piperazine] | 5.2 | 4.52 ng/well | 9.6 | 305.3 ng/well
19 | O=C(CCc1ccc(O)c(O)c1)N1CCN(C(c2ccccc2)c2ccccc2)CC1 [Compound 102, N-Diphenylmethyl-N'-[3-(3,4-dihydroxyphenyl)propionyl]piperazine] | 5.1 | 4.44 ng/well | 10.1 | 321.2 ng/well
20 | COC(=O)[C@@H]1CCCN1C(=O)CCc1ccc(O)c(O)c1 [Compound 103, N-[3-(3,4-dihydroxyphenyl)propionyl]-L-proline methyl ester] | 4.3 | 3.74 ng/well | 6.3 | 200.3 ng/well
21 | CCOC(=O)C1CCCN(C(=O)CCc2ccc(O)c(O)c2)C1 (stereo not drawn) [Compound 104, Ethyl N-[3-(3,4-dihydroxyphenyl)propionyl]nipecotinate] | 5.7 | 4.96 ng/well | 7.8 | 248.0 ng/well
